Broadly, the inhibition is how much of the control response was suppressed.

Where a name gives a salt, the structure may show the parent alone. Bounds are passed on as bounds.

Here are results for 23 compounds from patent US5563142A, “Diaromatic substituted compounds as anti-HIV-1 agents” (The Upjohn Company, priority 1994, dated 1996).

The subject of one assay is HIV. To be noted: cited from earlier work.
Assay [1] concerns the target T1, viral reverse transcriptase (Human immunodeficiency virus type 1 group M subtype B, UniProt P04585).
T1 construct: Viral reverse transcriptase is found in extracts from bacterial clones; made in house; host or cells: Escherichia coli (extracts of bacterial clones, by the procedure of Larder et al., EMBO J. 6:3133-3137, 1987)
Description: Viral reverse transcriptase inhibition, cell free assay. To be noted: read-out: RT % INHIBITION (100 μM), 100 μM; poly rC or poly rG template. Type of assay: biochemical, human immunodeficiency virus (HIV-1). The gist of the method: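 E. coli-expressed HIV-1 RT extract was incubated with inhibitor, 10 μM [35S]-dNTP, poly rC/rG template and oligo dG/dT primer in Tris pH 8.3 with Mg2+ at 37 °C (30 min; 15 min in an alternative version). DNA incorporation was counted on filters and reported as % inhibition (at 100 μM in one version) and IC50.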

The test system of assay [2] is HIV-1 (MT-2 cells infected with HIV-1). Description: Inhibition of HIV-induced syncytia formation in MT-2 cells. The format is cell-based. The settings on record: Human immunodeficiency virus 1, MT2; MT-2 cells infected with HIV-1; read-out: INHIBITION OF SYNCYTIA FORMATION ED50. The source says:
This test is described in Quantitative Infectivity Assay for HIV-1 and -2., Nature 332: 469-470, 1988 as well as in AIDS RESEARCH AND HUMAN RETROVIRUSES, Vol. 4, No. 6, pages 449-455 (1988), Mary Ann Liebent, Inc., Publishers; in an article entitled "Nucleotide Dimers Suppress HIV Expression In VITRO". The results (IC50 means the concentration, in μM of drug, required to inhibit syncytia formation to the extent of 50%) of various assay(s) are combined and reported as % inhibition and IC50 (calculated).
ability of various compounds used to inhibit HIVinduced syncytia formatio
in a tissue culture assay using MT2 cells infected with HIV1. This test i
described by Nara et al., Quantitative infectivity assay for HIV1 and 2,
Nature 332, 469-470 (1988), as well as in AIDS RESEARCH AND HUMAN
RETROVIRUSES, vol. 4, No. 6, pages 449-455 (1988), Mary Ann Liebent, Inc.
Publishers, and in an article by Mariano Busso, et al., entitled
"Nucleotide Dimers Suppress HIV Expression In Vitro". The results
(ED50 means the concentration, in μM of drug, required to inhibit
syncytia formation to the extent of 50%) of various assay are combined an
reported in Table I. In comparison, the known commercial compound, AZT,
percent reductions in syncytia formation at concentrations of
approximately 1 μM and 0.5 μM, respectively.

The test system of assay [3] is HIV in primary human peripheral blood lymphocytes. Description: Primary PBL assay: inhibition of viral replication (p24 & RNA). Type of assay: cell-based. The settings on record: Human immunodeficiency virus 1, Lymphocyte, primary human lymphocytes infected with HIV, days three and four, read-out: PBL INHIBITION OF VIRAL REPLICATION (p24 & RNA) ED50. In a few lines: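 Mitogen-stimulated human PBLs infected with standardized HIV, cultured with drug 4 days at one tenth of the antiproliferative half-maximal concentration. Secreted p24 by capture-ELISA and total HIV RNA by hybridization on days 3 and 4, with viability in parallel; ED50 is the concentration giving 50% reduction in p24.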

Turning to `O=c1[nH]cnc2c1ncn2[C@H]1CC[C@@H](CO)O1` [ddI], the “activity against HIV in vitro” value with HIV is given as “potent activity”.

Take `CC(C)Nc1cccnc1N1CCN(Cc2cc3cc(F)ccc3[nH]2)CC1` [Example 32, 1-[5-Fluoroindolyl-2-methyl]-4-[3-(1-methylethylamino)-2-pyridinyl]piperazine]: in assay [1], the inhibition at 100 µM was determined as 96%. Also, the IC50 in assay [2] is < 0.3 µM. Moreover, the EC50 in assay [3] lay in the range of 0.003 to 0.01 µM.

Consider `Nc1ccn([C@H]2CC[C@@H](CO)O2)c(=O)n1` [ddC], for which the “activity against HIV in vitro” value in the assay on HIV is recorded as “potent activity”.

With `CCNc1cccnc1N1CCN(C(=O)c2cc3c(C)c(OC)c(C)c(C)c3[nH]2)CC1` [Example 42, 1-[5-Methoxy-4,6,7-trimethylindolyl-2-carbonyl]-4-[3-(ethylamino)-2-pyridinyl]piperazine], in assay [1], the inhibition at 100 µM was determined as 63%. The IC50 in assay [2] was 2 µM. In addition, the EC50 in assay [3] stood at 10 µM.

Turning to `CCNc1cccnc1N1CCN(C(=O)c2cc3cc(CC)ccc3[nH]2)CC1` [Example 24, 1-[5-Ethylindolyl-2-carbonyl]-4-[3-(ethylamino)-2-pyridinyl]piperazine], in assay [1], the inhibition at 100 µM lay within 65 to 70%. Also, the IC50 in assay [2] is 16 µM. For the same compound, the EC50 in assay [3] was 0.01 to 0.1 µM.

Turning to `CCNc1cccnc1N1CCN(Cc2cc3ccccc3[nH]2)CC1` [Example 20, 1-[Indolyl-2-methyl]-4-[3-(ethylamino)-2-pyridinyl]piperazine], the inhibition at 100 µM in assay [1] worked out at 64%. Also, the IC50 in assay [2] was found to be 10 µM. In assay [3], the EC50 stood at 1 µM.

Take `CC(C)(C)Nc1cccnc1N1CCN(C(=O)c2cc3cc(F)ccc3[nH]2)CC1` [Example 46, 1-[5-Fluoroindolyl-2-carbonyl]-4-[3-(1,1-dimethylethylamino)-2-pyridinyl]piperazine hydrochloride salt]: the inhibition at 100 µM in assay [1] was 89%. In addition, the IC50 in assay [2] stood at 1 µM. In assay [3], the EC50 lay within 0.001 to 0.01 µM.

Consider `CCNc1cccnc1N1CCN(C(=O)c2cc3ccccc3o2)CC1` [Example 27, 1[Benzofuroyl-2-carbonyl]-4-[3-(ethylamino) -2-pyridinyl]piperazine], for which the inhibition at 100 µM in assay [1] was 37 to 57%. Further, the IC50 in assay [2] is > 0.001 µM. In addition, the EC50 in assay [3] worked out at 10 µM.

Regarding `CC(C)Nc1cccnc1N1CCCN(C(=O)c2cc3ccccc3[nH]2)CC1` [Example 83, 1-(Indolyl-2-carbonyl)-4-[3-(1-methylethylamino)-2-pyridinyl]-1,4-diazepine], the inhibition at 100 µM in assay [1] lay within 97 to 98%. The IC50 in assay [2] was < 0.3 µM. Moreover, in assay [3], the EC50 was < 0.001 µM.

Turning to `CCN(CC)c1cccnc1N1CCN(C(=O)c2cc3ccccc3[nH]2)CC1` [Example 19, 1-[Indolyl-2-carbonyl]-4-[3-(N,N-diethylamino)-2-pyridinyl]-piperazine], the inhibition at 100 µM in assay [1] is 65 to 71%. Moreover, the IC50 in assay [2] is 3 µM. Further, in assay [3], the EC50 was in the range of 0.1 to 1 µM.

As to `CCOc1ccccc1N1CCN(C(=O)c2cc3ccccc3[nH]2)CC1` [Example 10, 1-[Indolyl-2-carbonyl]-4-[2-ethoxyphenyl]piperazine], the inhibition at 100 µM in assay [1] is 72 to 87%. In assay [2], the IC50 turned out to be 5 µM. The EC50 in assay [3] was > 1 µM.

`CCNc1cccnc1N1CCN(C(=O)c2cc3ccccc3[nH]2)CC1` [Example 11, 1-[Indolyl-2-carbonyl]-4-[3-(ethylamino)-2-pyridinyl]piperazine]: the inhibition at 100 µM in assay [1] was in the range of 95 to 98%. In addition, in assay [2], the IC50 fell in the range of 0.3 to 3 µM. Besides, the EC50 in assay [3] lay within 0.01 to 0.1 µM.

With `CCNc1cccnc1N1CCN(Cc2cc(C)c(OC)c(C)c2)CC1` [Example 3, 1-[4-Methoxy-3,5-dimethylbenzyl]-4-[3-(ethylamino)-2-pyridinyl]piperazine], the inhibition at 100 µM in assay [1] fell in the range of 70 to 76%. In addition, the IC50 in assay [2] is 1 to 2.5 µM. Also, the EC50 in assay [3] was 1 µM.

In the case of `CCNc1cccnc1N1CCN(C(=O)c2ccc[nH]2)CC1` [Example 70, 1-[Pyrrolyl-2-carbonyl]-4-(3-ethylamino-2-pyridinyl)piperazine], the inhibition at 100 µM in assay [1] lay within 83 to 91%. In addition, in assay [2], the IC50 was determined as 2 µM. Further, in assay [3], the EC50 was ≥ 1 µM.

On to `CCNc1cccnc1N1CCN(C(=O)c2cc(C)c(OC)c(C)c2)CC1` [Example 1, 1-[4-Methoxy-3,5-dimethylbenzoyl]-4-[3-(ethylamino)-2-pyridinyl]piperazine], for which the inhibition at 100 µM in assay [1] is 60 to 79%. Moreover, the IC50 in assay [2] turned out to be 10 µM. In addition, the EC50 in assay [3] turned out to be 1 µM.

For the compound `CCNc1ccccc1N1CCN(C(=O)c2cc3cc(OC)ccc3[nH]2)CC1` [Example 28, 1-[5-Methoxyindolyl-2-carbonyl]-4-[2-(ethylamino)phenyl]piperazine], the inhibition at 100 µM in assay [1] was determined as 70%. Further, the IC50 in assay [2] was > 26 µM. In assay [3], the EC50 lay in the range of 0.1 to 1 µM.

On to `CC(C)(C)Nc1cccnc1N1CCN(C(=O)c2cc3ccccc3[nH]2)CC1` [Example 44, 1-[Indolyl-2-carbonyl]-4-[3-(1,1-dimethylethylamino)-2-pyridinyl]piperazine], for which the inhibition at 100 µM in assay [1] was 89%. In addition, in assay [2], the IC50 is 0.1 µM. Besides, the EC50 in assay [3] lay within 0.001 to 0.01 µM.

As to `CCNc1cccnc1N1CCN(C(=O)c2cc3cc(F)ccc3[nH]2)CC1` [Example 23, 1-[5-Fluoroindolyl-2-carbonyl]4-[3-(ethylamino)-2-pyridinyl]-piperazine], the inhibition at 100 µM in assay [1] fell in the range of 92 to 95%. For the same compound, the IC50 in assay [2] is < 0.3 µM. Besides, the EC50 in assay [3] lay within 0.003 to 0.01 µM.

Take `CCCNc1cccnc1N1CCN(C(=O)c2cc3cc(F)ccc3[nH]2)CC1` [Example 21, 1-[5-Fluoroindolyl-2-carbonyl]-4-[3-(propylamino)-2-pyridinyl]piperazine]: the inhibition at 100 µM in assay [1] fell in the range of 44 to 74%. In addition, the IC50 in assay [2] was found to be 1 µM. Moreover, the EC50 in assay [3] was 0.01 to 1 µM.

As to `COc1ccc2[nH]c(C(=O)N3CCN(c4ncccc4NC(C)(C)C)CC3)cc2c1` [Example 45, 1-[5-Methoxyindolyl-2-carbonyl]-4-[3-(1,1-dimethylethylamino)-2-pyridinyl]piperazine hydrochloride salt], the inhibition at 100 µM in assay [1] was 83 to 91%. The IC50 in assay [2] was determined as 0.5 µM. Also, the EC50 in assay [3] was in the range of 0.01 to 0.1 µM.

For `CCNc1ccccc1N1CCN(C(=O)c2cc3ccccc3[nH]2)CC1` [Example 29, 1-[Indolyl-2-carbonyl]-4-[2-(ethylamino)phenyl]piperazine], the inhibition at 100 µM in assay [1] lay in the range of 75 to 83%. Also, the IC50 in assay [2] worked out at 2.8 µM. In addition, the EC50 in assay [3] lay within 0.1 to 1 µM.

With `O=C(c1cc2ccccc2[nH]1)N1CCN(c2ncccc2NCC2CC2)CC1` [Example 31, 1-[Indolyl-2-carbonyl]-4-[3-(cyclopropylmethylamino)-2-pyridinyl]piperazine], the inhibition at 100 µM in assay [1] was in the range of 65 to 71%. The IC50 in assay [2] is 3 µM. In addition, in assay [3], the EC50 was in the range of 0.1 to 1 µM.

`CCNc1cccnc1N1CCN(C(=O)c2cc3cc(O)ccc3[nH]2)CC1` [Example 37, 1-[5-Hydroxyindolyl-2-carbonyl]-4-[3-(ethylamino)-2-pyridinyl]piperazine]: in assay [1], the inhibition at 100 µM fell in the range of 82 to 95%. Further, in assay [2], the IC50 was 0.3 µM. Also, in assay [3], the EC50 was found to be 0.1 µM.
